Test results taken from patent publication US20210315893A1 (Galapagos NV, priority 2017, published 2021).
pEC50: −log10 of the molar value. Like-named read-outs stand apart in the source and are kept apart here.

How the values were obtained:
[1] = system: HFL-1 cells; experiment: IL-8 production assay (S1P induced IL-8); type: cell-based; settings: Homo sapiens, HFL1; S1P (1 μM) induced IL-8 in HFL-1 cells, starvation medium without HSA; read-out: IL8 EC50
Summary of the method: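 HFL-1 fibroblasts in low-serum medium were pretreated 1 h with a 10-point 1/3 series of compound starting at 30 μM (0.3% DMSO).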

[2] = target: T1, human GPCR sphingosine 1-phosphate receptor 5 (Homo sapiens, UniProt Q9H228); experiment: S1PR5 selectivity Ca2+ flux assay (antagonist readout); type: cell-based; settings: CHO cells overexpressing human S1PR5 and Gq, agonist at EC80 (20 nM), read-out: S1P5 EC50 (nM), S1P5 antagonist EC50
T1 construct: host or cells: CHO
T1 sequence (Q9H228 whole entry): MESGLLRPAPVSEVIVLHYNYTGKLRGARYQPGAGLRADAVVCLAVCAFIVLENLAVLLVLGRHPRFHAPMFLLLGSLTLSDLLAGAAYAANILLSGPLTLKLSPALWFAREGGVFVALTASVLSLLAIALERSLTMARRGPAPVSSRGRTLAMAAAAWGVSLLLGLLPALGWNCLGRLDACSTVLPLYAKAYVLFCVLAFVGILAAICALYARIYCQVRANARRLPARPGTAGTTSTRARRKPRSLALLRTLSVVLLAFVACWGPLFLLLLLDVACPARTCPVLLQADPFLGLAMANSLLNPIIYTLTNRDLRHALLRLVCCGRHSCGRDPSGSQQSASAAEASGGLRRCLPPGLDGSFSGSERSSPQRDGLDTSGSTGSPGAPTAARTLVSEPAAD
Text: To evaluate the selectivity of the compounds for S1PR2 over S1PR1 and S1PR5, asimilar assay set upas described above for theS1PR2 calcium flux assays waspeformed: CHO cells stably overexpressing human GPCR sphingosine 1-phosphate receptor 1 and Gq protein (Euroscreen, FAST-0197A) or overexpressing human GPCR sphingosine 1-phosphate receptorS5 and Gq protein were used (Perkin Elmer, ES-593-A). In case of the S1PR5 assay triggering was done with an SPR5 specific agonist instead of with S1P (Hobson et al., 2015).
(§1) 50 μL of Chinese hamster ovary (CHO) cells stably overexpressing human S1PR1 or S1PR5 are seeded in 384 well sterile microplates (7,500 cells/well or 10,000 cells/well respectively) and are incubated overnight at 37° C. under 5% CO2. Cells are subsequently washed twice with 25 μL/well of starvation medium (F-12 Ham's medium containing 0.1% fatty acid free bovine serum albumin (FAF BSA)). After one h starvation at 37° C., 5% CO2, cells are loaded with 25 μL of Fluo 8 dye diluted in Hank's balanced salt solution (HBSS) with 20 mM Hepes complemented with 5 mM of probenecid following the recommendations of the manufacturer (one h at 37° C., 5% CO2). Dilution series of compounds are prepared in HBSS buffer with 20 mM Hepes and 0.1% BSA (FAF). 10 μL of diluted compound is added to the cells using the FDSS/pCELL and intracellular calcium changes are measured immediately by recording fluorescence during 3 min (agonist readout). The ratio of maximal signal over background before compound injection is used to determine compound response.
After an incubation of 15 min at 37° C., following the agonist readout, the plates are transferred to the FDSS/pCELL reader. Cells are stimulated with 10 μL of EC80 concentration of S1P (6 nM for S1P1 and 20 nM for S1P5) and intracellular calcium changes are measured immediately by recording fluorescence during three min (antagonist readout). The ratio of maximal signal over background before S1P injection was used to determine the inhibitory effect ofthe compound.
(§2) Raw data obtained in each experiment (ratio of maximal signal over background for calcium mobilization assays) were normalized in percentage of activation (agonist mode) or inhibition (antagonist mode) using positive and negative experiment controls. Each individual plate quality was assessed by evaluation of Z′ factor calculated with raw data using the following equation
(§3) Y=bottom+(top−bottom)/(1+(10^(Log IC50−X)*Hillslope)) where X is the logarithm of the concentration of the compound

[3] = system: HFL-1 cells; experiment: IL8 assay in the presence of Human Serum Albumin; settings: HFL1, read-out: HSA IL8 EC50
[4] = target: T2, human GPCR sphingosine 1-phosphate receptor 1 (Homo sapiens, UniProt P21453); experiment: S1PR1 selectivity Ca2+ flux assay (antagonist readout); type: cell-based; settings: for EC50: antagonist readout, CHO cells overexpressing human S1PR1 and Gq, S1P at EC80 (6 nM), read-out: S1P1 EC50 (nM), S1P1 antagonist EC50
T2 construct: host or cells: CHO
T2 sequence (P21453 whole entry): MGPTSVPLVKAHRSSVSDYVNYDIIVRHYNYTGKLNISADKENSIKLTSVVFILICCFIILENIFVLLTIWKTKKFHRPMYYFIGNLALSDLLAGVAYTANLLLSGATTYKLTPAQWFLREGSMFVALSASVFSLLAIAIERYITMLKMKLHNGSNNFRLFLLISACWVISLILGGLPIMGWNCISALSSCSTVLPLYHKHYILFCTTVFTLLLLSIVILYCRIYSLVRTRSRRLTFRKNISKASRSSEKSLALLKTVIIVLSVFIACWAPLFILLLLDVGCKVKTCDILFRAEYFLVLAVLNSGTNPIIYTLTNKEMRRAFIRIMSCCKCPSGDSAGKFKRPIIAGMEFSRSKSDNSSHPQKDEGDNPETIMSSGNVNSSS
Description: as §1
After an incubation of 15 min at 37° C., following the agonist readout, the plates are transferred to the FDSS/pCELL reader. […] The ratio of maximal signal over background before S1P injection was used to determine the inhibitory effect ofthe compound.
as §2, §3

[5] = target: T3, S1PR2 (Homo sapiens, UniProt O95136); experiment: S1PR2 binding assay (competition with radioactively labeled S1P, SpA); settings: membranes from stable cell line over expressing S1PR2, SpA beads; read-out: S1P2 EC50 (nM), S1PR2 binding EC50
T3 construct: expressed in transfected cells
T3 sequence (O95136 whole entry): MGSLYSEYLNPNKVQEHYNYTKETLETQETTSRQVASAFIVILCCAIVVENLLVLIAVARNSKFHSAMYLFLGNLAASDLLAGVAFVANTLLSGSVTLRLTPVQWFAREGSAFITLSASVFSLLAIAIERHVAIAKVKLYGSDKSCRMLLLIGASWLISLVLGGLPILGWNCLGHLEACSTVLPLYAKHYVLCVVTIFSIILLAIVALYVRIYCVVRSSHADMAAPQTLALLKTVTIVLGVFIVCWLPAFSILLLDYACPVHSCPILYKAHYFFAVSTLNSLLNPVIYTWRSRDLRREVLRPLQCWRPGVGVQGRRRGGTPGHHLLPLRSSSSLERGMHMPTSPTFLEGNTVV
Summary of the method: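 Scintillation proximity read-out after 2 h room-temperature incubation of compound, [3H]S1P and S1PR2-overexpressing cell membranes on WGA-coated beads. Buffer: 20 mM Tris pH 7.5, 100 mM NaCl, 10 mM MgCl2, 1 mM Na3VO4, 0.4% fatty-acid-free BSA; plates counted immediately after centrifugation.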

[6] = target: T4, human GPCR sphingosine 1-phosphate receptor 2 (Homo sapiens, UniProt O95136); experiment: S1PR2 antagonist Ca2+ flux assay; type: cell-based; settings: antagonist mode, CHO-S1PR2 cells, S1P at EC80, Ca2+ fluorescence; read-out: S1P2 EC50 (nM), S1P2 antagonist EC50
T4 construct: host or cells: CHO
T4 sequence (O95136 whole entry): as above
Summary of the method: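 Antagonist mode: 15 min after compound addition, S1P (EC80) stimulates Fluo8-loaded, 1 h-starved CHO-S1PR2 cells, Ca2+ read over 3 min; a prior 3-min read checks compound agonism. EC50 from peak/baseline fluorescence ratio, normalised versus vehicle and S1P EC50 (antagonist) or EC100 (agonist).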

pEC50 [1]	EC50 [2]	pEC50 [3]	EC50 [4]	EC50 [5]	EC50 [6]	SMILES	pEC50 [4]
6.68	19800 nM	4.65	≥ 19800 nM	–	–	C[C@@H](C(=O)O)n1nc(Cn2cc3cc(OCC4CC4)c(Cl)cc3n2)c2ccccc2c1=O [compound 18, (2S)-2-[4-[[6-chloro-5-(cyclo-propylmethoxy)-indazol-2-yl]-methyl]-1-oxo-phthalazin-2-yl]propanoic acid]	–
8.60	19800 nM	7.28	–	30.4 nM	5.4 nM	CN(C)CC(C(=O)O)c1nn(Cc2nc3cc(C#N)c(OCC4CC4)cc3[nH]2)c2ccccc2c1=O (centres unmarked) [compound 21, (2-[1-[[5-cyano-6-(cyclopropyl-methoxy)-1H-benzimidazol-2-yl]methyl]-4-oxocinnolin-3-yl]-3-(dimethyl-amino)propanoic acid)]	–
8.24	6610 nM	7.19	≥ 19800 nM	–	–	O=C(O)Cc1nn(Cc2cn3cc(OCC4CC4)c(Cl)cc3n2)c2ccccc2c1=O [Compound 89, 2-[1-[[7-chloro-6-(cyclopropylmethoxy)imidazo[1,2-a]pyridin-2-yl]methyl]-4-oxo-cinnolin-3-yl]acetic acid]	–
8.75	19800 nM	7.59	1840 nM	–	–	O=C(O)Cn1nc(Cc2nc3cc(OCC4CC4)c(C(F)(F)F)cc3[nH]2)c2ccccc2c1=O [Compound 123, 2-[4-[[5-(cyclopropylmethoxy)-6-(trifluoromethyl)-1H-benzimidazol-2-yl]methyl]-1-oxo-phthalazin-2-yl]acetic acid]	–
8.79	19800 nM	7.72	≥ 19800 nM	–	–	CC(C(=O)O)c1nn(Cc2cn3cc(OCC4CC4)c(Cl)cc3n2)c2ccccc2c1=O (centres unmarked) [compound 4, 2-[1-[[7-chloro-6-(cyclopropyl-methoxy)imidazo-[1,2-a]pyridin-2-yl]methyl]-4-oxo-cinnolin-3-yl]propanoic acid]	–
7.37	10000 nM	5.97	–	49 nM	15.2 nM	O=C(O)Cn1nc(Cn2cc3cc(OCC4CC4)c(Br)cc3n2)c2ccccc2c1=O [Compound 111, 2-[4-[[6-bromo-5-(cyclopropylmethoxy)indazol-2-yl]methyl]-1-oxo-phthalazin-2-yl]acetic acid]	–
9.04	19800 nM	7.01	–	28.7 nM	6.33 nM	CC(C(=O)O)n1nc(Cc2cn3cc(OCC4CC4)c(Cl)cc3n2)c2cc(F)ccc2c1=O (centres unmarked) [Compound 86, 2-[4-[[7-chloro-6-(cyclopropylmethoxy)imidazo[1,2-a]pyridin-2-yl]methyl]-6-fluoro-1-oxo-phthalazin-2-yl]propanoic acid]	–
–	19800 nM	7.74	≥ 19800 nM	30 nM	3.02 nM	Cc1cccc2c1c(=O)c(CC(=O)O)nn2Cc1cn2cc(OCC3CC3)c(Cl)cc2n1 [Compound 102, 2-[1-[[7-chloro-6-(cyclopropylmethoxy)imidazo[1,2-a]pyridin-2-yl]methyl]-5-methyl-4-oxo-cinnolin-3-yl]acetic acid]	–
7.52	19800 nM	6.37	≥ 19800 nM	–	–	O=C(O)C1(c2nn(Cc3cn4cc(OCC5CC5)c(Cl)cc4n3)c3ccccc3c2=O)CC1 [Compound 96, 1-[1-[[7-chloro-6-(cyclopropylmethoxy)imidazo[1,2-a]pyridin-2-yl]methyl]-4-oxo-cinnolin-3-yl]cyclopropanecarboxylic acid]	–
7.49	627 nM	5.78	≥ 19900 nM	–	–	O=C(O)Cn1nc(Cn2cc3cc(OCC4CC4)c(Cl)cc3n2)c2ccccc2c1=O [Compound 114, 2-[4-[[6-chloro-5-(cyclopropylmethoxy)indazol-2-yl]methyl]-1-oxo-phthalazin-2-yl]acetic acid]	–
8.89	19900 nM	7.74	19900 nM	–	–	C[C@H](C(=O)O)c1nn(Cc2cn3cc(OCC4CC4)c(Cl)cc3n2)c2ccccc2c1=O [compound 19, (2S)-2-[1-[[7-chloro-6-(cyclo-propylmethoxy)-imidazo[1,2-a]-pyridin-2-yl]-methyl]-4-oxo-cinnolin-3-yl]-propanoic acid]	–
8.79	6610 nM	7.56	–	241 nM	29.8 nM	CCOc1cc2nc(Cc3nn(CC(=O)O)c(=O)c4c(C)cccc34)[nH]c2cc1Cl [Compound 77, 2-[4-[(6-chloro-5-ethoxy-1H-benzimidazol-2-yl)methyl]-8-methyl-1-oxo-phthalazin-2-yl]acetic acid]	–
8.63	2240 nM	7.82	–	11.2 nM	2.17 nM	N#Cc1cc2nc(Cn3nc(C(=O)O)c(=O)c4ccccc43)[nH]c2cc1OCC1CC1 [Compound 110, 1-[[5-cyano-6-(cyclopropylmethoxy)-1H-benzimidazol-2-yl]methyl]-4-oxo-cinnoline-3-carboxylic acid]	–
8.82	1620 nM	7.76	–	22 nM	3.48 nM	O=C(O)c1nn(Cc2nc3cc(OCC4CC4)c(Cl)cc3[nH]2)c2ccccc2c1=O [compound 5, 1-[[6-chloro-5-(cyclopropyl-methoxy)-1H-benzimidazol-2-yl]methyl]-4-oxo-cinnoline-3-carboxylic acid]	–
7.27	19800 nM	6.66	–	231 nM	24.3 nM	O=C(O)Cn1nc(Cc2nc3nc(OCC4CC4)c(Cl)cc3[nH]2)c2ccccc2c1=O [Compound 257, 2-[4-[[6-chloro-5-(cyclopropylmethoxy)-1H-imidazo[4,5-b]pyridin-2-yl]methyl]-1-oxo-phthalazin-2-yl]acetic acid]	–
8.30	19800 nM	7.20	–	51.1 nM	3.45 nM	CC(C(=O)O)c1nn(Cc2cn3cc(OCC4CC4)c(C(F)(F)F)cc3n2)c2ccccc2c1=O (centres unmarked) [Compound 100, 2-[1-[[6-(cyclopropylmethoxy)-7-(trifluoromethyl)imidazo[1,2-a]pyridin-2-yl]methyl]-4-oxo-cinnolin-3-yl]propanoic acid]	–

SMILES	pEC50 [1]	EC50 [2]	pEC50 [3]	EC50 [4]	EC50 [5]	EC50 [6]	pEC50 [4]
CC(C(=O)O)n1nc(Cc2cn3cc(OCC4CC4)c(Cl)cc3n2)c2ccccc2c1=O (centres unmarked) [Compound 83, 2-[4-[[7-chloro-6-(cyclopropylmethoxy)imidazo[1,2-a]pyridin-2-yl]methyl]-1-oxo-phthalazin-2-yl]propanoic acid]	–	19800 nM	6.90	–	53.2 nM	12.7 nM	≤ 4.70
CC(C(=O)O)n1nc(Cn2cc3cc(OCC(F)F)c(Cl)cc3n2)c2ccccc2c1=O (centres unmarked) [Compound 76]	–	19800 nM	5.46	–	317 nM	161 nM	≤ 4.70
